According to PubChem BioAssay AID2305 (GlaxoSmithKline (GSK), 2010):

system: P. falciparum 3D7 growth, pLDH absorbance; assay: P. falciparum 3D7 growth inhibition, dose response, strain 3D7 (AID 2305)

| Compound | IC50 [nM] |
| --- | --- |
| CNCCNCc1cccc(-c2cccc(-c3nc4ccc(C(F)(F)F)cc4[nH]3)c2)c1 | 200 |
| CC(C)CSc1cc(C(=O)Nc2cc(Cl)ccc2O)ccn1 | 670 |
| CC(C)(C)c1ccc(C(=O)Nc2cccc(Nc3c(C(=O)NCc4cccc(C(F)(F)F)c4)cnc4c(O)cccc34)c2)cc1 | 1090 |
| CC(C)NCc1ccc(-c2cccc(-c3nc4ccccc4[nH]3)c2)cc1 | 230 |
| CCCC(=O)c1cnc2c(OCCCc3cnc[nH]3)cccc2c1Nc1c(C)cccc1C | 340 |
| CC(C)NCc1ccc(-c2ccc(NC(=O)c3cccc(Cl)c3)cc2)cc1 | 960 |
| Nc1nc2ccc(S(=O)(=O)Nc3ccc(C(=O)N[C@@H](CCC(=O)O)C(=O)O)c(F)c3)cc2c(=O)[nH]1 | 820 |
| CN1CCCC(CN2CCN(Cc3cccc(-c4ccc(-c5nc6ccc(C(F)(F)F)cc6[nH]5)cc4)c3)CC2)C1 (stereo unspecified) | 150 |
| COc1ccc(NC(=O)[C@H](Cc2ccccc2)Nc2cc(C)nc(NCCc3cccs3)n2)cc1 | 750 |
| CC(C)Cn1cc(C2CCN(CCN3CCC(CNC(=O)c4ccc(NC(=O)c5cc(Cl)cc(Cl)c5)cc4)CC3)CC2)c2ccccc21 | 690 |
| CC(C)CNC(=O)c1cncc(-c2cccc(CNC3Cc4ccccc4C3)c2)c1 | 790 |
| CC(C)(C)OC(=O)NCC(=O)N(Cc1ccccc1)Cc1ccccc1 | 120 |
| CS(=O)(=O)CCNCc1nc(-c2ccc3ncnc(Nc4ccc(OCc5ccccc5)c(Cl)c4)c3c2)cs1 | 800 |
| CC(C)Cc1csc(NC(=O)C=Cc2ccco2)c1C(=O)O | 300 |
| O=C(NC1CCN(Cc2ccccc2)CC1)c1csc2nc(-c3ccc(Cl)cc3)cn12 | 910 |
| Cc1ccc(CN2CCN(Cc3cccc(NC(=O)c4ccc5ccccc5c4)c3)CC2)cc1C | 1220 |
| O=C(NCC1CCC(C(=O)NCc2cccc3ccccc23)CC1)c1ccc(O)c(-c2ccc(Cl)c(Cl)c2)c1 (stereo unspecified) | 750 |
| COc1ccc(CNCc2ccc(F)cc2)cc1-c1ccc(OC)c(S(=O)(=O)NCCN2CCCC2)c1 | 790 |
| O=c1cc(NCCCNCc2cccc(I)c2)[nH]c2ccccc12 | 1020 |
| CC(C)(C)OC(=O)NCc1ccc(Nc2nnc(-c3cccc(C(=O)NCCC(c4ccccc4)c4ccccc4)c3)o2)cc1 | 580 |
| O=C(C=Cc1ccc(Cl)c(Cl)c1)NCCCCCN1CCCC(CCCNC(=O)c2sc3ccccc3c2Cl)C1 (stereo unspecified) | 1030 |
| CC(=O)c1cccc(NC(=O)NC2CCN(c3ccnc(Nc4ccc(F)cc4)n3)C2)c1 (stereo unspecified) | 650 |
| COc1cc(Cc2cnc(N)nc2N)ccc1OCc1ccc(-c2ccccc2C#N)cc1 | 940 |
| CC[C@H]1CN2CC[C@@H]1C[C@H]2[C@H](O)c1cc(N2CCC(C)CC2)nc2ccc(OC)cc12 | 170 |

| Compound | IC50 [nM] |
| --- | --- |
| CCN(c1ccccc1)S(=O)(=O)c1ccc(OC)c(NC(=O)c2cccc(C(F)(F)F)c2)c1 | 880 |
| CCc1cn2c3c(cc(C(=O)N[C@@H](Cc4ccccc4)[C@H](O)CNCc4ccccc4)cc13)N(C)S(=O)(=O)CC2 | 660 |
| Oc1ccc(Cl)cc1-c1cc(C(F)(F)F)nc(-c2ccccc2)n1 | 750 |
| COc1ccc(C2CC(c3cccs3)=NN2C(=O)COc2cccc3c2CCCC3O)cc1OC (stereo unspecified) | 1150 |
| CC(C)(C)c1ccc(-c2csc(NC(=O)CC(c3ccccc3)c3ccccc3)n2)cc1 | 1150 |
| COc1ccc(NC(=O)CCNc2cc(C)nc(NCc3ccccc3C)n2)cc1 | 1070 |
| COc1ccc(NC(=O)/C=C/c2ccccc2Cl)cc1OCCN1CCC(N2CCCC2)CC1 | 790 |
| O=C1COc2cc(Cl)c(CNC3CCN(CCc4ccnc5c(F)cc(F)cc45)CC3)nc2N1 | 800 |
| Cc1ccc(O)c(Nc2c3c(c(C#N)c4nc5ccccc5n24)CCC3)c1 | 1250 |
| CCOC(=O)C(C)(C)Oc1ccc(CN(Cc2ccc(CC(C)C)cc2)C(=O)Nc2ccc(F)cc2F)c(OC)c1 | 240 |
| O=C(Nc1ccc(F)c(F)c1)c1ccc(CN2CCCN(Cc3cccc(F)c3)CC2)cc1 | 1120 |
| CN1CCN(CCCN(Cc2csc(-c3ccc(CNCc4ccccc4)cc3)n2)S(=O)(=O)c2ccccc2)CC1 | 770 |
| CC(C)c1ccc(NS(=O)(=O)c2cccc(C(=O)NC3CCN(CC4CCCCC4)CC3)c2)cc1 | 1300 |
| Cc1cc(N[C@@H](Cc2ccccc2)C(=O)NCc2cccc(F)c2)nc(NCc2ccccc2C)n1 | 980 |
| CCCCCCc1c(C)[nH]c2cc(OC)ccc2c1=O | 120 |
| COc1ccccc1-c1[nH]c2ccccc2c1CN1CCC(c2c(C)cccc2C)CC1 | 920 |
| O=C(/C=C/c1ccc(Cl)c(Cl)c1)NCCCCCN1CCC(NC(=O)Nc2cccc(Cl)c2Cl)CC1 | 670 |
| CC1CCCN(S(=O)(=O)c2ccc(NC(=O)c3cc(-c4ccccc4O)n[nH]3)cc2)C1 (stereo unspecified) | 760 |
| COc1cccc(NC(=O)Nc2ccc(Nc3nc(C)cc(N4CCCC4)n3)cc2)c1 | 200 |
| CC(C)(C)OC(=O)c1c(NC(=O)/C=C/c2ccc(O)c(O)c2)sc2c1CCCC2 | 820 |
| Cc1cc(Nc2ccc(OCc3ccccc3Cl)cc2)c2cc(Cl)ccc2n1 | 430 |
| COc1cc(C)cc(CN2CCC(Cc3ccccc3)CC2)c1O | 1020 |
| CCN1CCC(N(CCCCCCCCc2ccc(C(F)(F)F)cc2)C(=O)Cn2c(CCc3cccc(F)c3F)cc(=O)c3ccccc32)CC1 | 1200 |
| N#Cc1cccc(C(=O)N2CCOC(CCN3CCC(c4ccccc4)CC3)(c3ccc(Cl)c(Cl)c3)C2)c1 (stereo unspecified) | 1040 |

| Compound | IC50 [nM] |
| --- | --- |
| NOCCCCOc1ccc(Br)cc1 | 190 |
| Cc1cc(C)c(C)c(S(=O)(=O)N2CCCCC(c3ccc(F)c(F)c3)=N2)c1C | 710 |
| COc1c(C2CCN(CCN3CCC(CNC(=O)c4ccc(-c5ccc(C#N)cc5)cc4)CC3)CC2)ccc2c1CCCC2 | 460 |
| CC(Cc1ccc(OCCCCOc2ccccc2)cc1)NCCc1ccccc1Cl (stereo unspecified) | 180 |
| CN1CCN(c2ccnc3ccc(NC(=O)c4ccc(Cl)c(Cl)c4)cc23)CC1 | 710 |
| O=C(Nc1ccc(-c2nc3ccccc3[nH]2)cc1)c1ccc(S(=O)(=O)N2CCCCCC2)cc1 | 410 |
| COc1cc(C)nc2ccc(NC(=O)c3cc([N+](=O)[O-])cc([N+](=O)[O-])c3)cc12 | 390 |
| NCC1CCCN1Cc1cccc(-c2ccc(-c3nc4ccccc4[nH]3)s2)c1 (stereo unspecified) | 1040 |
| Cc1ccc2ncc(Cl)c(CCN3CCC(NCc4ccc5c(n4)NC(=O)CS5)CC3)c2n1 | 1100 |
| CC(=O)Oc1ccc(C(=O)Oc2ccccc2C#CC#N)cc1OC(C)=O | 320 |
| O=C(Nc1cccc(-c2csc(-c3nc4ccccc4[nH]3)c2)c1)c1cccnc1 | 230 |
| CC(=O)NC(c1cccs1)c1cc(Cl)c2cccnc2c1O (stereo unspecified) | 320 |
| COc1cc(NC(=O)C(c2ccc(Cl)cc2)C(C)C)cc(OC)c1OC (stereo unspecified) | 530 |
| CN1CCC[C@H]1COc1ccc(CN2CC[C@H](NC(=O)c3ccc(Cl)c(Cl)c3)C2)cc1Cl | 1150 |
| COc1ccc(N2CCN(CCCCNC(=O)c3ccc(NC(=O)c4ccc(Cl)cc4)cc3)CC2)c(OC)c1 | 950 |
| CCn1c(-c2nonc2N)nc2c(-c3cccc(NC(=O)Nc4cccc(OC)c4)c3)ncc(OCCCN)c21 | 770 |
| CCOC(=O)C1=C(C)N=c2sc(=Cc3cc(Cl)ccc3O)c(=O)n2C1c1ccc2c(c1)OCO2 (stereo unspecified) | 710 |
| CC(C)Oc1cccc(-c2ccc(C(=O)NCC3CCCN(Cc4cccc(C(F)(F)F)c4)C3)s2)c1 (stereo unspecified) | 1080 |
| COc1cc(C(=O)Nc2nc3ccccc3[nH]2)ccc1OCC(=O)Nc1cccc(C(F)(F)F)c1 | 740 |
| CCc1nc2ccc(C(=O)OC)nc2n1Cc1ccc2oc(-c3ccccc3N)c(Br)c2c1 | 820 |
| COc1ccc(C2C(C(=O)Nc3ccc(C)cc3Br)c3ccccc3C(=O)N2C)cc1 (stereo unspecified) | 940 |
| CCCCNCc1ccc(-c2nc(CN(C(=O)Nc3cc([N+](=O)[O-])ccc3F)C3Cc4ccccc4C3)cs2)cc1 | 1100 |
| CCCCc1ccccc1NS(=O)(=O)c1ccc(OC)c(N2CCNCC2)c1 | 1380 |
| OCCc1ccc(Nc2nccc(-c3nnc4ccccn34)n2)cc1 | 900 |

| Compound | IC50 [nM] |
| --- | --- |
| COc1cc(Cc2cnc(N)nc2N)cc(OCCCC#N)c1OC | 1030 |
| O=C(c1ccc(-c2ccc(-c3nc4ccc(C(F)(F)F)cc4[nH]3)s2)cc1)N1CCN(CCc2ccccc2)CC1 | 590 |
| Cn1c(N)c(N=O)c(=O)[nH]c1=O | 180 |
| CC(=O)c1cccc(NC(=O)NC2CCN(CCCCCNC(=O)/C=C/c3ccc(Cl)c(Cl)c3)CC2)c1 | 840 |
| Cc1cccc(-c2nc3cc(NC(=O)c4ccc([N+](=O)[O-])o4)ccc3o2)c1 | 880 |
| CC(C)CC1c2[nH]c3ccccc3c(=O)c2CN1C(=O)OC(C)(C)C (stereo unspecified) | 220 |
| CN1CCN(CC2(Nc3nccc(NCCc4cn(C)c5ccccc45)n3)CCCCC2)CC1 | 1810 |
| Cc1cc(NC(=O)c2ccco2)ccc1OC1CCN(Cc2ccc(C#N)cc2)CC1 | 500 |
| CCOc1c(CNCCCCCCNCc2ccc3ccccc3c2OCC)ccc2ccccc12 | 760 |
| Cc1cc(C)c(NC(=O)NC2CCN(CCCCCNC(=O)/C=C/c3ccc(Cl)c(Cl)c3)CC2)c(C)c1 | 800 |
| COc1cc(C(=O)N2CCN(C(C)C)CC2)ccc1CN(C)CCCN1CCN(c2cccc(Cl)c2Cl)CC1 | 780 |
| CC(C)(C)c1ccc(CN2CCC(NC(=O)c3ccc(-c4ccccc4Cl)s3)CC2)cc1 | 1350 |
| CC(Oc1ccc(C(=O)c2ccc(F)cc2)cc1)C(=O)N1CCc2ccccc21 (stereo unspecified) | 410 |
| c1cn(-c2ccc(CNc3nccc(Nc4ccc(OCCN5CCOCC5)cc4)n3)cc2)cn1 | 880 |
| Cc1cc2nc(-c3cccc(C(=O)NC4CCN(Cc5ccccc5)CC4)c3)[nH]c2cc1C | 830 |
| O=C(NC1CCC(CN2CCC(c3c[nH]c4ccccc34)CC2)CC1)c1cn(Cc2ccccc2)c2ccccc12 (stereo unspecified) | 1130 |
| CN(C)CCCOc1ccc(CN2CC[C@H](NC(=O)c3ccc(Cl)c(Cl)c3)C2)cc1Cl | 960 |
| CCCCCn1c(Sc2ccc(C#N)c([N+](=O)[O-])c2)nnc1-c1ccccc1 | 860 |
| CC(C)(NCc1ccc(OC(F)(F)F)cc1)c1nc(-c2ccc(Cl)c(O)c2)c(-c2ccncc2)[nH]1 | 940 |
| Cc1nnc2c(NC(=O)NC3CCCC3)cc3cc(-c4ccc(CN(C)C)cc4)ccc3n12 | 1470 |
| COc1ccc(-c2ccc(NC(=O)c3cccs3)cc2)cc1CN1CCCN(C)CC1 | 960 |
| Cc1c(S(=O)(=O)Nc2ccc3ccn(CCN(C)C)c3c2)sc2ccc(Cl)cc12 | 920 |
| O=C(Nc1ccccc1)Nc1ccc(-n2ccc(C(F)(F)F)n2)cc1 | 630 |
| CC(CN)OCn1cnc2c(N)ncnc21 (stereo unspecified) | 230 |
